In US12110279B2, “Triazolones, tetrazolones, and imidazolones, or their salts, and pharmaceutical compositions comprising the same” (Yuhan Corporation, priority 2021, dated 2024):
Where a name gives a salt, the structure may show the parent alone. Read-outs that look alike come from different tables or passages of the source.

Key:
Format in all cases: biochemical
[1] = target: T1, recombinant human MAO-A (monoamine oxidase-A) (Homo sapiens, UniProt P21397); assay: Amplex Red HRP-coupled amine oxidase activity evaluation, recombinant human MAO-A; conditions: substrate 0.5 mM tyramine; read-out: Inhibitory Activity (IC50, nM) MAO-A
T1 construct: purchased Sigma-Aldrich
T1 sequence (P21397 1-527): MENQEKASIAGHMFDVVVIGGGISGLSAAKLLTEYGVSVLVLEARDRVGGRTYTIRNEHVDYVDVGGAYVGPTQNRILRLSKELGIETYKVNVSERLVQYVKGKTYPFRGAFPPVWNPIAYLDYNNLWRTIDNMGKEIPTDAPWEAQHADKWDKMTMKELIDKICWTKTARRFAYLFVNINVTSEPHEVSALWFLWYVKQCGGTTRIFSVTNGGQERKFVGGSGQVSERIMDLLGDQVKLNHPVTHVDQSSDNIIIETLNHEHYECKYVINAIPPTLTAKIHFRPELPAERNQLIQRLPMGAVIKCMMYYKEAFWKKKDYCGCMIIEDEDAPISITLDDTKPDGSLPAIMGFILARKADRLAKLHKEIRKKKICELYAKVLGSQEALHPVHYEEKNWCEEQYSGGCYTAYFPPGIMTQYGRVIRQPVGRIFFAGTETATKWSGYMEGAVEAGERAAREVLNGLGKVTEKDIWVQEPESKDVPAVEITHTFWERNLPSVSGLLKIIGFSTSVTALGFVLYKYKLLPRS
Protocol: [The source words this procedure for another target and says it was used here with some conditions changed.] (§1) The compounds according to the present technology were evaluated in terms of activity on recombinant human VAP-1 (R&D systems) by measuring the level of hydrogen peroxide in horseradish peroxidase (HRP)-coupled reaction using Amplex Red Hydrogen Peroxide Assay Kit (Molecular Probes, Invitrogen, USA). The experiment was carried out at room temperature using benzylamine as a substrate. In the HRP-coupled reaction, hydrogen peroxide oxidation of 10-acetyl-3,7-dihydroxyphenoxazine (Amplex Red reagent) produces resorufin, which is a highly fluorescent compound. Briefly, the test compound was dissolved in dimethyl sulfoxide (DMSO) at a concentration of 20 mM. The dose-response assessment was made by 1:3 serial dilution in DMSO, thereby creating an 8-point curve. The concentration of the upper part was controlled according to the efficacy of the compounds, followed by dilution with a reaction buffer solution to obtain a final DMSO concentration of less than 1%. To each well of a 96 black well plate, human VAP-1 purified in 50 mM sodium phosphate buffer solution (pH7.4) was added. The test compounds dissolved in DMSO were incubated with the human VAP-1 enzymes at 37° C. for 30 minutes. After 30-minute incubation, each well was added with a reaction mixture containing 200 uM Amplex Red reagent prepared from 50 mM sodium phosphate buffer solution (pH 7.4), 1 mM benzylamine, and 1 U/mL HRP. Fluorescence intensity was measured at several time points during 1-2 hours using a microplate reader (Flexstation3, Molecular Devices) under the wavelength condition exciting at 544 nm and reading the emission at 590 nm. The inhibitory effect of the compounds was measured as a decrease (%) in the signal rate as compared to the control group without any inhibitor (only diluted DMSO). Data was fixed to a logistic model with four variables and IC50 value was calculated using GraphPad Prism program.

[2] = target: T2, recombinant human MAO-B (monoamine oxidase-B) (Homo sapiens, UniProt P27338); assay: Amplex Red HRP-coupled amine oxidase activity evaluation, recombinant human MAO-B; conditions: substrate 1 mM benzylamine; read-out: Inhibitory Activity (IC50, nM) MAO-B
T2 construct: purchased Sigma-Aldrich
T2 sequence (P27338 1-520): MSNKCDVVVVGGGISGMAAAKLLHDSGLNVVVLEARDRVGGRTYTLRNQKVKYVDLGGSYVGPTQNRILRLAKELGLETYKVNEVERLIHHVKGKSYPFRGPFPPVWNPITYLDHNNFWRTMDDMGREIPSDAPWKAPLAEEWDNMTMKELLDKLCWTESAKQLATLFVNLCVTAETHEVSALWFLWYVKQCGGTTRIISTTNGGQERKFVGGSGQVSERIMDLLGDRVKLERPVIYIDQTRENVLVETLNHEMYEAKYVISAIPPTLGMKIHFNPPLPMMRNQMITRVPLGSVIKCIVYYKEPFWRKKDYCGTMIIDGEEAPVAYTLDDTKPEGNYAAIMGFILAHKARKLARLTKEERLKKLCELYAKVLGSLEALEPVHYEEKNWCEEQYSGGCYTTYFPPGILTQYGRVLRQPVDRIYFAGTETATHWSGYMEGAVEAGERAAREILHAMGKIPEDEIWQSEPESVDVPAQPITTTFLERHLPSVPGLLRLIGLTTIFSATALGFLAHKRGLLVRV
Protocol: [The source words this procedure for another target and says it was used here with some conditions changed.] as §1

recombinant human VAP-1 = target: T3, recombinant human VAP-1 (Homo sapiens, UniProt Q16853); assay: Amplex Red HRP-coupled amine oxidase activity evaluation, recombinant human VAP-1; conditions: substrate 1 mM benzylamine; 30 min preincubation at 37° C.; read-out: Inhibitory Activity (IC50, nM) human VAP-1
T3 construct: purchased R&D systems
T3 sequence (Q16853 1-763): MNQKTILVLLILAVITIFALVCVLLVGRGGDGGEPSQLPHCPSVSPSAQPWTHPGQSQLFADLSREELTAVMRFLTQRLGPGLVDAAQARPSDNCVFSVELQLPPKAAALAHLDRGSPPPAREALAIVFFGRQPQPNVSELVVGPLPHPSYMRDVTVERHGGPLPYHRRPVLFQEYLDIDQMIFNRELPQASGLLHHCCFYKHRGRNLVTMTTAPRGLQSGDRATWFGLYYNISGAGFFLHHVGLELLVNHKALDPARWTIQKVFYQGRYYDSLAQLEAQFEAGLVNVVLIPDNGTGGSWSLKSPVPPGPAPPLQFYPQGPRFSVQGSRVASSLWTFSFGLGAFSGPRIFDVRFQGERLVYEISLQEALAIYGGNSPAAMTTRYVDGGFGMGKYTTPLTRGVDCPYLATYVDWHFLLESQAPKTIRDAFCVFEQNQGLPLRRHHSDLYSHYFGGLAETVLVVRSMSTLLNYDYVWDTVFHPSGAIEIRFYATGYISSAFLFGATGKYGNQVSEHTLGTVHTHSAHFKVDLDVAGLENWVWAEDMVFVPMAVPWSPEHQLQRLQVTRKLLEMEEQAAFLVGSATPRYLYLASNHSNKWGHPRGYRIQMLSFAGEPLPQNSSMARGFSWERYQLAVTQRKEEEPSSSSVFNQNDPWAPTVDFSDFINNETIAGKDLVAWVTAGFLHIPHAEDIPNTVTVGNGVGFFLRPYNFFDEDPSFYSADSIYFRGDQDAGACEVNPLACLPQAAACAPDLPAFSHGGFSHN
Protocol: as §1

[3] = target: T4, recombinant human DAO (diamine oxidase) (Homo sapiens, UniProt P19801); assay: Amplex Red HRP-coupled amine oxidase activity evaluation, recombinant human DAO
T4 construct: purchased R&D systems
T4 sequence (P19801 20-751): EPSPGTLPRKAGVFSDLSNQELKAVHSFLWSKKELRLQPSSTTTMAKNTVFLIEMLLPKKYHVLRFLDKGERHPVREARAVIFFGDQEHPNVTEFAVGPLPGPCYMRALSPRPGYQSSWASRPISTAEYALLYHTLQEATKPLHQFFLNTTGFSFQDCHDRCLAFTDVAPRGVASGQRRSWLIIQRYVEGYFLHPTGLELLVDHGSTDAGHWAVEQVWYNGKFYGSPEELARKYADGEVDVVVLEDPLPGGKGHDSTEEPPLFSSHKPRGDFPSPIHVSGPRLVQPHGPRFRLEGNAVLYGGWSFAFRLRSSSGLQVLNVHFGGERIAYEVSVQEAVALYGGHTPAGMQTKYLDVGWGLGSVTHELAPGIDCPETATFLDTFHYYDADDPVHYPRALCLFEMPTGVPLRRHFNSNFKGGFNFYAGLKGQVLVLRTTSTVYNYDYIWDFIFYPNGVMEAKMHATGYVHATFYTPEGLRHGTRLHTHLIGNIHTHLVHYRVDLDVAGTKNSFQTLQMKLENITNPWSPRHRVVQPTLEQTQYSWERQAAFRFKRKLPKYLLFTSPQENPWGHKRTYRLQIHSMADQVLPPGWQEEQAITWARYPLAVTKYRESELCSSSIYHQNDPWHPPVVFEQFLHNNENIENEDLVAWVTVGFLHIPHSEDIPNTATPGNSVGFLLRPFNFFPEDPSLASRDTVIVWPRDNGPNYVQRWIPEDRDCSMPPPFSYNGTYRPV
Protocol: [The source words this procedure for another target and says it was used here with some conditions changed.] as §1

[4] = substrate 1 mM putrescine, read-out: Inhibitory Activity (IC50, nM) DAO

| IC50 [1] | IC50 [2] | IC50 (recombinant human VAP-1) | IC50 [3] | IC50 [3, 4] | Compound |
| --- | --- | --- | --- | --- | --- |
| > 100000 nM | > 100000 nM | 0.9 nM | 10 nM | – | CCn1cc(-c2cccc(-n3nnn(CC(CN)=C(F)F)c3=O)c2)ccc1=O [Example 12, 5-[3-[4-[2-(aminomethyl)-3,3-difluoro-allyl]-5-oxo-tetrazol-1-yl]phenyl]-1-ethyl-pyridin-2-one di-trifluoroacetate] |
| > 100000 nM | 7800 nM | 0.7 nM | – | 12 nM | Cc1cc(-c2cccc(-n3nnn(CC(CN)=C(F)F)c3=O)c2)cc2c1NC(=O)CC2 [Example 13, 6-[3-[4-[2-(aminomethyl)-3,3-difluoro-allyl]-5-oxo-tetrazol-1-yl]phenyl]-8-methyl-3,4-dihydro-1H-quinolin-2-one trifluoroacetate] |
| > 100000 nM | 2470 nM | 1.4 nM | 12 nM | – | CN1C(=O)CCc2cc(-c3cccc(-n4nnn(CC(CN)=C(F)F)c4=O)c3)ccc21 [Example 14, 6-[3-[4-[2-(aminomethyl)-3,3-difluoro-allyl]-5-oxo-tetrazol-1-yl]phenyl]-1-methyl-3,4-dihydroquinolin-2-one trifluoroacetate] |
| > 100000 nM | 43500 nM | 1 nM | 113 nM | – | CCn1cc(-c2cccc(-n3nnn(CC(CN)=C(F)F)c3=O)c2)cn1 [Example 15, 1-[2-(aminomethyl)-3,3-difluoro-allyl]-4-[3-(1-ethylpyrazol-4-yl)phenyl]tetrazol-5-one trifluoroacetate] |
| > 100000 nM | 260 nM | 1.5 nM | – | 55 nM | CS(=O)(=O)c1ccc(-c2ccc(-n3nnn(CC(CN)=C(F)F)c3=O)cc2)cc1 [Example 16, 1-[2-(aminomethyl)-3,3-difluoro-allyl]-4-[4-(4-methylsulfonylphenyl)phenyl]tetrazol-5-one trifluoroacetate] |
| > 100000 nM | 3990 nM | 1.2 nM | – | 65 nM | NCC(Cn1nnn(-c2ccc(-c3ccc(N4CCNCC4)cc3)cc2)c1=O)=C(F)F [Example 17, 1-[2-(aminomethyl)-3,3-difluoro-allyl]-4-[4-(4-piperazin-1-ylphenyl)phenyl]tetrazol-5-one di-trifluoroacetate] |
| > 100000 nM | 78 nM | 0.2 nM | – | > 100000 nM | CCn1cc(-c2ccc(-n3nnn(CC(CN)=C(F)F)c3=O)cc2)ccc1=O [Example 18, 5-[4-[4-[2-(aminomethyl)-3,3-difluoro-allyl]-5-oxo-tetrazol-1-yl]phenyl]-1-ethyl-pyridin-2-one trifluoroacetate] |
| > 100000 nM | 8.8 nM | 0.5 nM | – | 4890 nM | NCC(Cn1nnn(-c2ccc(-c3ccc4c(c3)OCO4)cc2)c1=O)=C(F)F [Example 19, 1-[2-(aminomethyl)-3,3-difluoro-allyl]-4-[4-(1,3-benzodioxol-5-yl)phenyl]tetrazol-5-one trifluoroacetate] |
| 82600 nM | 49 nM | 0.4 nM | – | > 100000 nM | Cc1cc(-c2ccc(-n3nnn(CC(CN)=C(F)F)c3=O)cc2)cc2c1NC(=O)CC2 [Example 20, 6-[4-[4-[2-(aminomethyl)-3,3-difluoro-allyl]-5-oxo-tetrazol-1-yl]phenyl]-8-methyl-3,4-dihydro-1H-quinolin-2-one trifluoroacetate] |
| > 100000 nM | 43 nM | 0.5 nM | – | 38 nM | CN1C(=O)CCc2cc(-c3ccc(-n4nnn(CC(CN)=C(F)F)c4=O)cc3)ccc21 [Example 21, 6-[4-[4-[2-(aminomethyl)-3,3-difluoro-allyl]-5-oxo-tetrazol-1-yl]phenyl]-1-methyl-3,4-dihydroquinolin-2-one trifluoroacetate] |
| 98400 nM | 74 nM | 0.3 nM | 95 nM | – | CCn1cc(-c2ccc(-n3nnn(CC(CN)=C(F)F)c3=O)cc2)cn1 [Example 22, 1-[2-(aminomethyl)-3,3-difluoro-allyl]-4-[4-(1-ethylpyrazol-4-yl)phenyl]tetrazol-5-one trifluoroacetate] |
| > 100000 nM | 59400 nM | > 100 nM | – | > 100000 nM | Cc1ccc(-c2ccc(S(C)(=O)=O)cc2)nc1-n1nnn(CC(CN)=C(F)F)c1=O [Example 23, 1-[2-(aminomethyl)-3,3-difluoro-allyl]-4-[3-methyl-6-(4-methylsulfonylphenyl)-2-pyridyl]tetrazol-5-one trifluoroacetate] |
